Like-named read-outs stand apart in the source and are kept apart here.
How the values were obtained:
HIV-1 (IIIB) = assay: Antiviral assay in MT-4 cells (HIV MT-4 antiviral assay); assay type: cell-based; conditions: HIV-1 (IIIB) in MT-4 cells, 5 days incubation, read-out: EC50
How it was run: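 MT-4 cells infected with HIV-1 IIIB (1:250 diluted stock) and exposed to 1:3 serially diluted compound in RPMI with 10% FBS. Viability read by CellTiter-Glo luminescence after 5 days at 37° C; mock-infected cells and 5 μM AZT as controls.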

pLai RLuc reporter virus = assay: microbe, parasite or virus in culture; assay type: cell-based, HIV; conditions: Human immunodeficiency virus 1, 72 h
How it was run: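 MT-4 cells pre-infected 2 h at 37 °C with pLai RLuc virus, then exposed to 1:3 serial dilutions of compound in RPMI/10% FBS with or without 50% human serum for 72 h at 37 °C. Renilla luminescence read-out; serum shift = EC50(HS/CCM)/EC50(CCM).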

[1] = Cytotoxicity assay in MT-4 cells; assay type: cell-based, human; conditions: human, uninfected MT-4 cells, 5 days incubation; read-out: CC50
How it was run: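 Infected MT-4 cells (HIV-1 IIIB, fresh 1:250 dilution of concentrated stock) or mock-infected cells exposed to compounds for 5 days at 37 °C. Viability by CellTiter-Glo luminescence; 5 μM AZT positive control, no-drug negative control. Uninfected cells used for cytotoxicity, with 10 μM puromycin as base-level cytotoxicity control.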

[2] = Human immunodeficiency virus 1, IIIB, MT4, 120 h
[3] = read-out: Antiviral Serum Shift RLuc 50% HS, HS/CCM (RPMI media, 10% FBS, 50% HS, 1% P/S), 72-h incubation
[4] = read-out: Antiviral Serum Shift RLuc CCM, CCM (RPMI media, 10% FBS, 1% P/S), 72-h incubation

## C[C@@H]1CCC[C@H]2CN1C(=O)c1c(O)c(=O)c(C(=O)NCc3ccc(F)cc3F)cn12 [Example 52-1, (3R, 7S)—N-(2,4-difluorobenzyl)-12-hydroxy-3-methyl-1,11-dioxo-1,4,5,6,7,11-hexahydro-3H-2,7-methanopyrido[1,2-a][1,4]diazonine-10-carboxamide]
HIV-1 (IIIB); [2]
  EC50: 2.15 nM
pLai RLuc reporter virus; [3]
  EC50: 6.18 nM
pLai RLuc reporter virus; [4]
  EC50: 0.245 nM
[1]
  CC50 at 5 days: 13100 nM

## O=C(NCc1c(F)cc(F)cc1F)c1cn2c(c(O)c1=O)C(=O)N1CC[C@@H](F)CC[C@H]2C1 [Example 81-2, (5S,8S)-5-fluoro-13-hydroxy-1,12-dioxo-N-(2,4,6-trifluorobenzyl)-1,3,4,5,6,7,8,12-octahydro-2,8-methanopyrido[1,2-a][1,4]diazecine-11-carboxamide]
HIV-1 (IIIB); [2]
  EC50: 1.35 nM
pLai RLuc reporter virus; [3]
  EC50: 0.737 nM
pLai RLuc reporter virus; [4]
  EC50: 0.304 nM
[1]
  CC50 at 5 days: 11200 nM

## O=C(NCc1ccc(F)cc1F)c1cn2c(c(O)c1=O)C(=O)N1CC/C=C\C[C@@H]2C1 [Example 44-1, (8R,Z)—N-(2,4-difluorobenzyl)-13-hydroxy-1,12-dioxo-1,3,4,7,8,12-hexahydro-2,8-methanopyrido[1,2-a][1,4]diazecine-11-carboxamide]
HIV-1 (IIIB); [2]
  EC50: 1.71 nM
pLai RLuc reporter virus; [3]
  EC50: 2.33 nM
pLai RLuc reporter virus; [4]
  EC50: 0.677 nM
[1]
  CC50 at 5 days: 10700 nM

## O=C(NCc1c(F)cc(F)cc1F)c1cn2c(c(O)c1=O)C(=O)N1C[C@H]2CCc2c(F)cccc21 [Example 43-2, (12R)-1-fluoro-7-hydroxy-6,8-dioxo-N-(2,4,6-trifluorobenzyl)-6,8,13,14-tetrahydro-12H-5,12-methanobenzo[e]pyrido[1,2-a][1,4]diazonine-9-carboxamide]
HIV-1 (IIIB); [2]
  EC50: 1.57 nM
pLai RLuc reporter virus; [3]
  EC50: 0.647 nM
pLai RLuc reporter virus; [4]
  EC50: 0.289 nM
[1]
  CC50 at 5 days: 9150 nM

## O=C(NCc1c(F)cc(F)cc1F)c1cn2c(c(O)c1=O)C(=O)N1C[C@H](O)CC[C@H]2C1 (single isomer, unassigned) [Example 79-2]
HIV-1 (IIIB); [2]
  EC50: 17.7 nM
pLai RLuc reporter virus; [3]
  EC50: 6.61 nM
pLai RLuc reporter virus; [4]
  EC50: 5.33 nM
[1]
  CC50 at 5 days: > 50000 nM

## O=C(NCc1c(F)cc(F)cc1F)c1cn2c(c(O)c1=O)C(=O)N1CC=CC[C@H]2C1 [Example 101, (7S)-12-hydroxy-1,11-dioxo-N-(2,4,6-trifluorobenzyl)-1,6,7,11-tetrahydro-3H-2,7-methanopyrido[1,2-a][1,4]diazonine-10-carboxamide]
HIV-1 (IIIB); [2]
  EC50: 1.52 nM
pLai RLuc reporter virus; [3]
  EC50: 1.62 nM
pLai RLuc reporter virus; [4]
  EC50: 0.22 nM
[1]
  CC50 at 5 days: 19500 nM

## O=C(NCc1ccc(F)cc1F)c1cn2c(c(O)c1=O)C(=O)N1CCCC[C@@H]2C1 (single isomer, unassigned) [Example 25-1]
HIV-1 (IIIB); [2]
  EC50: 1.3 nM
pLai RLuc reporter virus; [3]
  EC50: 36.6 nM
pLai RLuc reporter virus; [4]
  EC50: 0.42 nM
[1]
  CC50 at 5 days: 11500 nM

## C[C@@H]1CC[C@H](C)[C@@H]2CN1C(=O)c1c(O)c(=O)c(C(=O)NCc3c(F)cc(F)cc3F)cn12 [Example 151-1, (3R,6S,7R)-12-hydroxy-3,6-dimethyl-1,11-dioxo-N-(2,4,6-trifluorobenzyl)-1,4,5,6,7,11-hexahydro-3H-2,7-methanopyrido[1,2-a][1,4]diazonine-10-carboxamide]
HIV-1 (IIIB); [2]
  EC50: 4.27 nM
pLai RLuc reporter virus; [3]
  EC50: 1140 nM
pLai RLuc reporter virus; [4]
  EC50: 0.729 nM
[1]
  CC50 at 5 days: 14700 nM

## O=C(NCc1c(F)cc(F)cc1F)c1cn2c(c(O)c1=O)C(=O)N1CCc3ccc(Cl)cc3[C@H]2C1 [Example 138, (13S)-11-chloro-4-hydroxy-3,5-dioxo-N-(2,4,6-trifluorobenzyl)-3,5,8,13-tetrahydro-7H-6,13-methanobenzo[g]pyrido[1,2-a][1,4]diazonine-2-carboxamide]
HIV-1 (IIIB); [2]
  EC50: 3.17 nM
pLai RLuc reporter virus; [3]
  EC50: 8.7 nM
pLai RLuc reporter virus; [4]
  EC50: 0.708 nM
[1]
  CC50 at 5 days: 5020 nM

## C[C@@H]1CO[C@H](C)[C@H]2CN1C(=O)c1c(O)c(=O)c(C(=O)NCc3c(F)cc(F)cc3F)cn12 [Example 196, (3R,6R,7R)-12-hydroxy-3,6-dimethyl-1,11-dioxo-N-(2,4,6-trifluorobenzyl)-1,3,4,6,7,11-hexahydro-2,7-methanopyrido[1,2-d][1,4,7]oxadiazonine-10-carboxamide]
HIV-1 (IIIB); [2]
  EC50: 2.08 nM
pLai RLuc reporter virus; [3]
  EC50: 14.3 nM
pLai RLuc reporter virus; [4]
  EC50: 0.469 nM
[1]
  CC50 at 5 days: 25900 nM

## O=C(NCc1c(F)cc(F)cc1F)c1cn2c(c(O)c1=O)C(=O)N1CC2CCc2ccccc21 (single isomer, unassigned) [Example 38-1]
HIV-1 (IIIB)
  EC50: 16.3 nM
pLai RLuc reporter virus; [3]
  EC50: 360 nM
pLai RLuc reporter virus; [4]
  EC50: 2.64 nM
[1]
  CC50 at 5 days: 11000 nM

## C[C@@]12CCCCN(C1)C(=O)c1c(O)c(=O)c(C(=O)NCc3c(F)cc(F)cc3F)cn12 [Example 59-2, (7R)-12-hydroxy-7-methyl-1,11-dioxo-N-(2,4,6-trifluorobenzyl)-1,4,5,6,7,11-hexahydro-3H-2,7-methanopyrido[1,2-a][1,4]diazonine-10-carboxamide]
HIV-1 (IIIB); [2]
  EC50: 2.15 nM
pLai RLuc reporter virus; [3]
  EC50: 55.2 nM
pLai RLuc reporter virus; [4]
  EC50: 0.547 nM
[1]
  CC50 at 5 days: 18800 nM

## C[C@]1(F)CCN2C[C@H](C1)n1cc(C(=O)NCc3c(F)cc(F)cc3F)c(=O)c(O)c1C2=O [Example 115-1, (5S,7S)-5-fluoro-12-hydroxy-5-methyl-1,11-dioxo-N-(2,4,6-trifluorobenzyl)-1,4,5,6,7,11-hexahydro-3H-2,7-methanopyrido[1,2-a][1,4]diazonine-10-carboxamide]
HIV-1 (IIIB); [2]
  EC50: 1.48 nM
pLai RLuc reporter virus; [3]
  EC50: 0.713 nM
pLai RLuc reporter virus; [4]
  EC50: 0.271 nM
[1]
  CC50 at 5 days: 12200 nM

## O=C(NCc1c(F)cc(F)cc1F)c1cn2c(c(O)c1=O)C(=O)N1CCC[C@H]3C[C@@]32C1 [Example 66-2, (1aS,11aS)—N-(2,4,6-trifluorobenzyl)-7-hydroxy-6,8-dioxo-1a,2,3,4,6,8-hexahydro-1H-5,11a-methanocyclopropa[h]pyrido[1,2-a][1,4]diazonine-9-carboxamide]
HIV-1 (IIIB); [2]
  EC50: 1.68 nM
pLai RLuc reporter virus; [3]
  EC50: 4.55 nM
pLai RLuc reporter virus; [4]
  EC50: 0.294 nM
[1]
  CC50 at 5 days: 10400 nM

## O=C(NCc1ccc(F)cc1F)c1cn2c(c(O)c1=O)C(=O)N1CC[C@@H](F)C[C@@H]2C1 [Example 56-4, (5R, 7R)—N-(2,4-difluorobenzyl)-5-fluoro-12-hydroxy-1,11-dioxo-1,4,5,6,7,11-hexahydro-3H-2,7-methanopyrido[1,2-a][1,4]diazonine-10-carboxamide]
HIV-1 (IIIB); [2]
  EC50: 8.09 nM
pLai RLuc reporter virus; [3]
  EC50: 15.4 nM
pLai RLuc reporter virus; [4]
  EC50: 2.16 nM
[1]
  CC50 at 5 days: 30500 nM

## O=C(NCc1c(F)cc(F)cc1F)c1cn2c(c(O)c1=O)C(=O)N1CCCC(F)(F)[C@H]2C1 (single isomer, unassigned) [Example 10-2]
HIV-1 (IIIB); [2]
  EC50: 1 nM
pLai RLuc reporter virus; [3]
  EC50: 5.04 nM
pLai RLuc reporter virus; [4]
  EC50: 0.27 nM
[1]
  CC50 at 5 days: 16100 nM

## O=C(NCc1ccc(F)cc1F)c1cn2c(c(O)c1=O)C(=O)N1C[C@H]2CCc2cc(Cl)ccc21 [Example 49-2, (12R)-2-chloro-N-(2,4-difluorobenzyl)-7-hydroxy-6,8-dioxo-6,8,13,14-tetrahydro-12H-5,12-methanobenzo[e]pyrido[1,2-a][1,4]diazonine-9-carboxamide]
HIV-1 (IIIB); [2]
  EC50: 2.38 nM
pLai RLuc reporter virus; [3]
  EC50: 1.11 nM
pLai RLuc reporter virus; [4]
  EC50: 0.202 nM
[1]
  CC50 at 5 days: 7200 nM

## O=C(NCc1ccc(F)c(Cl)c1F)c1cn2c(c(O)c1=O)C(=O)N1CCC=C(F)[C@@H]2C1 (single isomer, unassigned) [Example 123-2]
HIV-1 (IIIB); [2]
  EC50: 1.93 nM
pLai RLuc reporter virus; [3]
  EC50: 440 nM
pLai RLuc reporter virus; [4]
  EC50: 0.245 nM
[1]
  CC50 at 5 days: 14600 nM

## CC(C)N1CCN2CC(C1)n1cc(C(=O)NCc3ccc(F)cc3F)c(=O)c(O)c1C2=O (centres unmarked) [Example 34, N-(2,4-difluorobenzyl)-12-hydroxy-5-isopropyl-1,11-dioxo-1,4,5,6,7,11-hexahydro-3H-2,7-methanopyrido[1,2-a][1,4,7]triazonine-10-carboxamide]
HIV-1 (IIIB); [2]
  EC50: 3.3 nM
pLai RLuc reporter virus; [3]
  EC50: 9.56 nM
pLai RLuc reporter virus; [4]
  EC50: 2.06 nM
[1]
  CC50 at 5 days: 16400 nM

## C[C@]12CN(CCc3cc(F)c(F)cc31)C(=O)c1c(O)c(=O)c(C(=O)NCc3c(F)cc(F)cc3F)cn12 (single isomer, unassigned) [Example 120-2]
HIV-1 (IIIB); [2]
  EC50: > 59.4 nM
pLai RLuc reporter virus; [3]
  EC50: 239 nM
pLai RLuc reporter virus; [4]
  EC50: 14 nM
[1]
  CC50 at 5 days: 11100 nM

## O=C(NCc1ccc(F)c(Cl)c1F)c1cn2c(c(O)c1=O)C(=O)N1CCCC(F)(F)[C@@H]2C1 (single isomer, unassigned) [Example 117-2]
HIV-1 (IIIB); [2]
  EC50: 3.53 nM
pLai RLuc reporter virus; [3]
  EC50: 1270 nM
pLai RLuc reporter virus; [4]
  EC50: 0.603 nM
[1]
  CC50 at 5 days: 15700 nM

## O=C(NCc1ccc(F)cc1F)c1cn2c(c(O)c1=O)C(=O)N1CC2CCc2ccccc21 (centres unmarked) [Example 36, N-(2,4-difluorobenzyl)-7-hydroxy-6,8-dioxo-6,8,13,14-tetrahydro-12H-5,12-methanobenzo[e]pyrido[1,2-a][1,4]diazonine-9-carboxamide]
HIV-1 (IIIB); [2]
  EC50: 2 nM
pLai RLuc reporter virus; [3]
  EC50: 7.16 nM
pLai RLuc reporter virus; [4]
  EC50: 0.917 nM
[1]
  CC50 at 5 days: 17700 nM

## C[C@H]1OC[C@H](C)N2C[C@H]1n1cc(C(=O)NCc3c(F)cc(F)cc3F)c(=O)c(O)c1C2=O [Example 195, (3S,6R,7R)-12-hydroxy-3,6-dimethyl-1,11-dioxo-N-(2,4,6-trifluorobenzyl)-1,3,4,6,7,11-hexahydro-2,7-methanopyrido[1,2-d][1,4,7]oxadiazonine-10-carboxamide]
HIV-1 (IIIB); [2]
  EC50: 1.73 nM
pLai RLuc reporter virus; [3]
  EC50: 10.4 nM
pLai RLuc reporter virus; [4]
  EC50: 0.441 nM
[1]
  CC50 at 5 days: 16700 nM
